Our source for the MIC values is patent US11180504B2 (ORCHID PHARMA LTD., priority 2016, dated 2021).

Converted amounts (≈) assume the structure as drawn.

Usually MIC stands for the lowest concentration found to suppress growth.

In assay [1] the test system is methicillin-sensitive Staphylococcus aureus. As to the kind of experiment: MIC by broth micro-dilution (CLSI), methicillin-sensitive S. aureus. Type of assay: cell-based. To be noted: Staphylococcus aureus, ATCC 29213 / MSSA, MSSA S. aureus ATCC29213; read-out: MIC. A general note: Dilution methods test growth across graded concentrations, often in twofold steps.
Assay [2] relates to carbapenem sensitive Escherichia coli. As to the kind of experiment: MIC by broth micro-dilution (CLSI), carbapenem sensitive E. coli. Type of assay: cell-based. To be noted: Escherichia coli, ATCC25922, ESBL −ve E. coli ATCC25922; read-out: MIC.
In assay [3] the test system is carbapenemase producing K. pneumoniae. Description: MIC by broth micro-dilution (CLSI), carbapenemase producing K. pneumoniae. Type of assay: cell-based, Klebsiella pneumoniae. Particulars: Klebsiella pneumoniae, ATCCBAA1705, KPC-2 K. pneumoniae ATCC BAA-1705; read-out: MIC.
Assay [4] concerns carbapenem sensitive Pseudomonas aeruginosa. As to the kind of experiment: MIC by broth micro-dilution (CLSI), carbapenem sensitive P. aeruginosa. Type of assay: cell-based. Particulars: Pseudomonas aeruginosa, ATCC27853, Meropenem susceptible P. aeruginosa ATCC27853; read-out: MIC.

As for `C[C@@H](NC(=O)Cn1cnnn1)[C@H]1C(=O)N2C(C(=O)O)=C(S[C@@H]3CN[C@H](C(=O)N4C[C@H](N)C[C@H]4CO)C3)[C@H](C)[C@H]12` [Example 440, (4R,5S,6R)-6-((R)-1-(2-(1H-tetrazol-1-yl)acetamido)ethyl)-3-((3S,5S)-5-((2S,4R)-4-amino-2-(hydroxymethyl)pyrrolidine-1-carbonyl)pyrrolidin-3-ylthio)-4-methyl-7-oxo-1-azabicyclo[3.2.0]hept-2-ene-2-carboxylic acid], the minimum inhibitory concentration (MIC) in assay [1] stood at 2 µg/mL (≈ 3.55 µM); in assay [2], 0.25 µg/mL (≈ 0.444 µM); in assay [3] it was 1 µg/mL (≈ 1.77 µM); in assay [4] it was 1 µg/mL (≈ 1.77 µM).
For the compound `C[C@@H](NC(=O)Cn1cnnn1)[C@H]1C(=O)N2C(C(=O)O)=C(S[C@@H]3CN[C@H](C(=O)N4C[C@@H](N)C[C@H]4CNS(C)(=O)=O)C3)[C@H](C)[C@H]12` [Example 441, (4R,5S,6R)-6-((R)-1-(2-(1H-tetrazol-1-yl)acetamido)ethyl)-3-((3S,5S)-5-((2S,4S)-4-amino-2-(methylsulfonamido-methyl)pyrrolidine-1-carbonyl)pyrrolidin-3-ylthio)-4-methyl-7-oxo-1-azabicyclo[3.2.0]hept-2-ene-2-carboxylic acid], the MIC in assay [1] turned out to be 4 µg/mL (≈ 6.24 µM); in assay [2], 0.25 µg/mL (≈ 0.39 µM); in assay [3], 2 µg/mL (≈ 3.12 µM); in assay [4], 8 µg/mL (≈ 12.5 µM).
Turning to `C[C@@H](NC(=O)Cn1cnnn1)[C@H]1C(=O)N2C(C(=O)O)=C(S[C@@H]3CN[C@H](C(=O)N4CCN(C[C@@H](O)CN)CC4)C3)[C@H](C)[C@H]12` [Example 442, (4R,5S,6R)-6-((R)-1-(2-(1H-tetrazol-1-yl)acetamido)ethyl)-3-((3S,5S)-5-(4-((S)-3-amino-2-hydroxypropyl)piperazioe-1-carbonyl)pyrrolidin-3-ylthio)-4-methyl-7-oxo-1-azabicyclo[3.2.0]hept-2-ene-2-carboxylic acid], the minimum inhibitory concentration (MIC) came to 2 µg/mL (≈ 3.3 µM) in assay [1], 0.125 µg/mL (≈ 0.206 µM) in assay [2], 1 µg/mL (≈ 1.65 µM) in assay [3] and 0.5 µg/mL (≈ 0.824 µM) in assay [4].
Turning to `C[C@@H](NC(=O)Cn1cnnn1)[C@H]1C(=O)N2C(C(=O)O)=C(S[C@@H]3CN[C@H](C(=O)N4CCC(CNCCN)CC4)C3)[C@H](C)[C@H]12` [Example 443, (4R,5S,6R)-6-((R)-1-(2-(1H-tetrazol-1-yl)acetamido)ethyl)-3-((3S,5S)-5-(4-((2-aminoethylamino)methyl)piperidine-1-carbonyl)pyrrolidin-3-ylthio)-4-methyl-7-oxo-1-azabicyclo[3.2.0]hept-2-ene-2-carboxylic acid], the minimal inhibitory concentration (MIC) in assay [1] is 4 µg/mL (≈ 6.61 µM); in assay [2] it was 0.5 µg/mL (≈ 0.827 µM); in assay [3], 2 µg/mL (≈ 3.31 µM); in assay [4] it was 1 µg/mL (≈ 1.65 µM).
With `C[C@@H](NC(=O)Cn1cnnn1)[C@H]1C(=O)N2C(C(=O)O)=C(S[C@@H]3CN[C@H](C(=O)N4C[C@H](N)C[C@H]4CN)C3)[C@H](C)[C@H]12` [Example 444], the MIC in assay [1] was determined as 2 µg/mL (≈ 3.55 µM); in assay [2] it was 0.5 µg/mL (≈ 0.889 µM); in assay [3], 2 µg/mL (≈ 3.55 µM); in assay [4], 2 µg/mL (≈ 3.55 µM).
As to `C[C@@H](NC(=O)Cn1cnnn1)[C@H]1C(=O)N2C(C(=O)O)=C(S[C@@H]3CN[C@H](C(=O)N4CCN(CCCN)CC4)C3)[C@H](C)[C@H]12` [Example 445, (4R,5S,6R)-6-((R)-1-(2-(1H-tetrazol-1-yl)acetamido)ethyl)-3-((3S,5S)-5-(4-(3-aminopropyl)piperazine-1-carbooyl)pyrrolidin-3-ylthio)-4-methyl-7-oxo-1-azabicyclo[3.2.0]hept-2-ene-2-carboxylic acid], the MIC was 2 µg/mL (≈ 3.39 µM) in assay [1], 0.25 µg/mL (≈ 0.423 µM) in assay [2], 1 µg/mL (≈ 1.69 µM) in assay [3] and 1 µg/mL (≈ 1.69 µM) in assay [4].
For the compound `C[C@@H](NC(=O)Cn1cnnn1)[C@H]1C(=O)N2C(C(=O)O)=C(S[C@@H]3CN[C@H](C(=O)N4CCN(C(=O)CNC(=N)N)CC4)C3)[C@H](C)[C@H]12` [Example 446, (4R,5S,6R)-6-((R)-1-(2-(1H-tetrazol-1-yl)acetamido)ethyl)-3-((3S,5S)-5-(4-(2-guanidinoacetyl)piperazine-1-carbonyl)pyrrolidin-3-ylthio)-4-methyl-7-oxo-1-azabicyclo[3.2.0]hept-2-ene-2-carboxylic acid], the minimal inhibitory concentration (MIC) in assay [1] is 2 µg/mL (≈ 3.16 µM); in assay [2] it was 0.25 µg/mL (≈ 0.395 µM); in assay [3], 1 µg/mL (≈ 1.58 µM); in assay [4], 4 µg/mL (≈ 6.32 µM).
On to `C[C@@H](NC(=O)Cn1cnnn1)[C@H]1C(=O)N2C(C(=O)O)=C(S[C@@H]3CN[C@H](C(=O)N4C[C@H](N)C[C@H]4C(=O)N4CC[C@@H](N)C4)C3)[C@H](C)[C@H]12` [Example 447, (4R,5S,6R)-6-((R)-1-(2-(1H-tetrazol-1-yl)acetamido)ethyl)-3-((3S,5S)-5-((2S,4R)-4-amino-2-((R)-3-aminopyrrolidine-1-carbonyl)pyrrolidine-1-carbonyl)pyrrolidin-3-ylthio)-4-methyl-7-oxo-1-azabicyclo[3.2.0]hept-2-ene-2-carboxylic acid], for which the MIC in assay [1] was found to be 16 µg/mL (≈ 24.8 µM); in assay [2], 0.5 µg/mL (≈ 0.774 µM); in assay [3], 4 µg/mL (≈ 6.19 µM); in assay [4], 16 µg/mL (≈ 24.8 µM).
Take `C[C@@H](NC(=O)Cn1cnnn1)[C@H]1C(=O)N2C(C(=O)O)=C(S[C@@H]3CN[C@H](C(=O)N4CCC(n5nccn5)CC4)C3)[C@H](C)[C@H]12` [Example 448, (4R,5S,6R)-6-((R)-1-(2-(1H-tetrazol-1-yl)acetamido)ethyl)-3-((3S,5S)-5-(4-(2H-1,2,3-triazol-2-yl)piperidine-1-carbooyl)pyrrolidin-3-ylthio)-4-methyl-7-oxo-1-azabicyclo[3.2.0]hept-2-ene-2-carboxylic acid]: the MIC was 4 µg/mL (≈ 6.67 µM) in assay [1], 0.5 µg/mL (≈ 0.834 µM) in assay [2], 8 µg/mL (≈ 13.3 µM) in assay [3] and greater than 128 µg/mL in assay [4].
In the case of `C[C@@H](NC(=O)Cn1cnnn1)[C@H]1C(=O)N2C(C(=O)O)=C(S[C@H]3CCN(C(=O)CN)C3)[C@H](C)[C@H]12` [Example 449, (4R,5S,6R)-6-((R)-1-(2-(1H-tetrazol-1-yl)acetamido)ethyl)-3-((S)-1-(2-aminoacetyl)pyrrolidin-3-ylthio)-4-methyl-7-oxo-1-azabicyclo[3.2.0]hept-2-ene-2-carboxylic acid], the MIC in assay [1] stood at 4 µg/mL (≈ 8.36 µM); in assay [2], 0.5 µg/mL (≈ 1.04 µM); in assay [3], 4 µg/mL (≈ 8.36 µM); in assay [4], 64 µg/mL (≈ 134 µM).
`C[C@@H](NC(=O)Cn1cnnn1)[C@H]1C(=O)N2C(C(=O)O)=C(S[C@@H]3CN[C@H](C(=O)N4CCN(C[C@H](O)CN)CC4)C3)[C@H](C)[C@H]12` [Example 450, (4R,5S,6R)-6-((R)-1-(2-(1H-tetrazol-1-yl)acetamido)ethyl)-3-((3S,5S)-5-(4-((R)-3-amino-2-hydroxypropyl)piperazine-1-carbonyl)pyrrolidin-3-ylthio)-4-methyl-7-oxo-1-azabicyclo[3.2.0]hept-2-ene-2-carboxylic acid]: the MIC is 8 µg/mL (≈ 13.2 µM) in assay [1], 0.25 µg/mL (≈ 0.412 µM) in assay [2], 1 µg/mL (≈ 1.65 µM) in assay [3] and 1 µg/mL (≈ 1.65 µM) in assay [4].
As for `C[C@@H](NC(=O)Cn1cnnn1)[C@H]1C(=O)N2C(C(=O)O)=C(S[C@@H]3CN[C@H](C(=O)N4CCN(CCN5CCNCC5)CC4)C3)[C@H](C)[C@H]12` [Example 451, (4R,5S,6R)-6-((R)-1-(2-(1H-tetrazol-1-yl)acetamido)ethyl)-3-methyl-7-oxo-3-((3S,5S)-5-(4-(2-(piperazin-1-yl)ethyl)piperazine-1-carbonyl)pyrrolidin-3-ylthio)-1-azabicyclo[3.2.0]hept-2-ene-2-carboxylic acid], the minimum inhibitory concentration (MIC) was 8 µg/mL (≈ 12.4 µM) in assay [1], 0.25 µg/mL (≈ 0.387 µM) in assay [2], 1 µg/mL (≈ 1.55 µM) in assay [3] and 2 µg/mL (≈ 3.1 µM) in assay [4].
Consider `C[C@@H](NC(=O)Cn1cnnn1)[C@H]1C(=O)N2C(C(=O)O)=C(S[C@@H]3CN[C@H](C(=O)N4C[C@H](N)C[C@H]4C(=O)O)C3)[C@H](C)[C@H]12` [Example 453, (4R,5S,6R)-6-((R)-1-(2-(1H-tetrazol-1-yl)acetamido)ethyl)-3-((3S,5S)-5-((2S,4R)-4-amino-2-carboxypyrrolidine-1-carbonyl)pyrrolidin-3-ylthio)-4-methyl-7-oxo-1-azabicyclo[3.2.0]hept-2-ene-2-carboxylic acid], for which the MIC in assay [1] amounted to 16 µg/mL (≈ 27.7 µM); in assay [2], 0.125 µg/mL (≈ 0.216 µM); in assay [3] it was 2 µg/mL (≈ 3.46 µM); in assay [4], 8 µg/mL (≈ 13.8 µM).
With `C[C@@H](NC(=O)Cn1cnnn1)[C@H]1C(=O)N2C(C(=O)O)=C(S[C@@H]3CN[C@H](C(=O)N4C[C@@H](N)C[C@H]4CNS(N)(=O)=O)C3)[C@H](C)[C@H]12` [Example 454, (4R,5S,6R)-6-((R)-1-(2-(1H-tetrazol-1-yl)acetamido)ethyl)-3-((3S,5S)-5-((2S,4S)-4-amino-2-((sulfamoylamino)-methyl)pyrrolidine-1-carbonyl)pyrrolidin-3-ylthio)-4-methyl-7-oxo-1-azabicyclo[3.2.0]hept-2-ene-2-carboxylic acid], the MIC in assay [1] turned out to be 8 µg/mL (≈ 12.5 µM); in assay [2] it was 0.5 µg/mL (≈ 0.779 µM); in assay [3] it was 4 µg/mL (≈ 6.23 µM); in assay [4], 4 µg/mL (≈ 6.23 µM).
For the compound `C[C@@H](NC(=O)Cn1cnnn1)[C@H]1C(=O)N2C(C(=O)O)=C(S[C@@H]3CN[C@H](C(=O)N4C[C@H](N)C[C@H]4CNS(N)(=O)=O)C3)[C@H](C)[C@H]12` [Example 455, (4R,5S,6R)-6-((R)-1-(2-(1H-tetrazol-1-yl)acetamido)ethyl)-3-((3S,5S)-5-((2S,4R)-4-amino-2-((sulfamoylamino)methyl)pyrrolidine-1-carbonyl)pyrrolidin-3-ylthio)-4-methyl-7-oxo-1-azabicyclo[3.2.0]hept-2-ene-2-carboxylic acid], the minimum inhibitory concentration (MIC) in assay [1] was 4 µg/mL (≈ 6.23 µM); in assay [2] it was 0.5 µg/mL (≈ 0.779 µM); in assay [3], 2 µg/mL (≈ 3.12 µM); in assay [4], 4 µg/mL (≈ 6.23 µM).
